Experimental data from patent US5430062A, “Stilbene derivatives as anticancer agents” (priority 1993, dated 1995).
Where a name gives a salt, the structure may show the parent alone. Read-outs that look alike come from different tables or passages of the source.

Experiments:
[1] = tested on: HT-29 colon adenocarcinoma; assay: MTT cytotoxicity assay, HT-29; settings: Homo sapiens, HT-29, […], read-out: Cytotoxicity ED50, HT-29
MLM melanoma = assay: MTT cytotoxicity assay, MLM; settings: […], read-out: Cytotoxicity ED50, MLM
A-549 lung carcinoma = assay: MTT cytotoxicity assay, A-549; settings: Homo sapiens, A549, […], read-out: Cytotoxicity ED50, A-549
MCF-7 breast carcinoma = assay: MTT cytotoxicity assay, MCF-7; settings: Homo sapiens, MCF7, […], read-out: Cytotoxicity ED50, MCF-7
SKMEL-5 melanoma = assay: MTT cytotoxicity assay, SKMEL-5; settings: Homo sapiens, SK-MEL-5, […], read-out: Cytotoxicity ED50, SKMEL-5
tubulin = assay: Inhibition of tubulin polymerization (turbidimetry); assay type: biochemical, bovine
[2] = second series (Tables V-VII, IX), read-out: Inhibition of Tubulin Polymerization IC50 (±S.D.)

| SMILES | IC50 [1] [µM] | IC50 (MLM melanoma) [µM] | IC50 (A-549 lung carcinoma) [µM] | IC50 (MCF-7 breast carcinoma) [µM] | IC50 (SKMEL-5 melanoma) [µM] | inhibition of tubulin polymerization (in words) (tubulin) | IC50 (tubulin; [2]) [µM] | IC50 (tubulin; Table X, different glutamate preparation (1M monosodium glutamate and GTP), read-out: inhibn of tubulin polymn IC50 (±SD)) [µM] |
| --- | --- | --- | --- | --- | --- | --- | --- | --- |
| COc1cc(CCc2ccc(N)cc2)cc(OC)c1OC [compound 8z, 1-(4-Aminophenyl)-2-(3,4,5-trimethoxyphenyl)ethane] | 24.6 | > 25 | 12.2 | 11.9 | 12.7 | lower activity |  |  |
| COc1ccc(/C=C(/C(=O)O)c2cc(OC)c(OC)c(OC)c2)cc1 [compound 23a, (E)-3-(4-Methoxyphenyl)-2-(3,4,5-trimethoxyphenyl)-prop-2-enoic acid] | 8.4 | > 25 | 13.9 | 12.8 | 9.1 |  | > 40 |  |
| CCCc1ccc(NCc2cc(OC)c(OC)c(OC)c2)cc1 [110g, 4-n-Propyl-N-(3,4,5-trimethoxybenzyl)aniline Hydrochloride] |  |  |  |  |  |  |  | > 40 |
| COc1ccc(/C=C\c2cc(OC)c(OC(C)=O)c(OC)c2)cc1 [15l, (Z)-1-(4-Acetoxy-3,5-dimethoxyphenyl)-2-(4-methoxyphenyl)ethene] | 8.7 | > 25 | 21.5 | > 25 | 0.6 |  | 24 |  |
| CCc1ccc(CCc2cc(OC)c(OC)c(OC)c2)cc1 [17e, 1-(4-Ethylphenyl)-2-(3,4,5-trimethoxyphenyl)ethane] | 0.016 | 2.7 | 0.088 | 0.16 | 0.047 |  | 18 |  |
| COc1ccc(NC(=O)c2cc(OC)c(OC)c(OC)c2)cc1 [11a, 3,4,5-Trimethoxy-N-(4-methoxyphenyl)benzamide] | 22.7 | > 25 | 14.1 | 12.2 | > 25 | lower inhibitory activity |  |  |
| CCOc1ccc(/C=C\c2cc(OC)c(OC)c(OC)c2)cc1 [compound 15a, (Z)-1-(4-Ethoxyphenyl)-2-(3,4,5-trimethoxyphenyl)ethene] | 0.0018 | 0.029 | 0.0016 | 0.096 | 0.0025 |  | 2.7 |  |
| COc1cc(/C=C\c2ccc(C(C)(C)C)cc2)cc(OC)c1OC [compound 15g, (Z)-1-(4-t-Butylphenyl)-2-(3,4,5-trimethoxyphenyl)ethene] | 0.88 | 4.32 | 1.02 | 1.57 | 0.21 |  | > 40 |  |
| COc1cccc(/C=C(/C(=O)O)c2cc(OC)c(OC)c(OC)c2)c1 [compound 23b, (E)-3-(3-Methoxyphenyl)-2-(3,4,5-trimethoxyphenyl)-prop-2-enoic acid] | 0.12 | > 25 | 0.025 | > 25 | 0.05 |  | > 40 |  |
| CCCOc1ccc(/C=C\c2cc(OC)c(OC)c(OC)c2)cc1 [compound 15b, (Z)-1-(4-n-Propoxyphenyl)-2-(3,4,5-trimethoxyphenyl)-thene] | 0.028 | 0.065 | 0.039 | 0.66 | 0.014 |  | 6 |  |
| COc1cc(CCc2ccc(C)cc2)cc(OC)c1OC [17d, 1-(4-Methylphenyl)-2-(3,4,5-trimethoxyphenyl)ethane] | 0.1 | 1.4 | 0.18 | 0.22 | 0.27 |  | 21 |  |
| COc1ccc(/C=C\c2cc(OC)c(OCc3ccccc3)c(OC)c2)cc1 [15j, (Z)-1-[4-(Benzyloxy)-3,5-(dimethoxy)phenyl]-2-(4-methoxyphenyl)ethene] |  |  |  |  |  |  | > 40 |  |
| COc1ccc(/C(=C\c2cc(OC)c(OC)c(OC)c2)C(=O)O)cc1 [23c, (E)-2-(4-Methoxyphenyl)-3-(3,4,5-trimethoxyphenyl)-prop-2-enoic acid] | 5.9 | > 25 | 5.2 | 1.9 | 2.3 |  | > 40 |  |
| COc1ccc(NC(=O)c2cc(OC)cc(OC)c2)cc1 [11d] | 14.5 | > 25 | 9.02 | 5.47 | 11.9 | lower inhibitory activity |  |  |
| COc1ccc(CC2c3cc(OC)c(OC)c(OC)c3CCN2C)cc1 (centres unmarked) [compound 41, 1-(4'-Methoxybenzyl)-5,6,7-trimethoxy-2-methyl-1,2,3,4-tetrahydroisoquinoline] | 9.7 | > 25 | 11.4 | 22.7 | 8.8 |  | > 40 |  |
| COc1ccc(CC2NCCc3c2cc(OC)c(OC)c3OC)cc1 (centres unmarked) [compound 38, 1-(4'-Methoxybenzyl)-5,6,7-trimethoxy-1,2,3,4-tetrahydroisoquinoline] | 20.2 | > 25 | 19.3 | > 25 | > 25 |  | > 40 |  |
| COc1ccc(/C=C\c2cc(OC)c(O[Si](C)(C)C(C)(C)C)c(OC)c2)cc1 [15k, (Z)-1-[4-{(t-Butyldimethylsilyl)-oxy}-3,5-(dimethoxy)-phenyl]-2-(4-methoxyphenyl)ethene] | 9 | > 25 | > 25 | > 25 | > 25 |  | > 40 |  |
